Results reported in PMC12396409, “Screening and hit evaluation of a microbial metabolite library against the pathogenic Plasmodium falciparum and Toxoplasma gondii parasites” (International Journal for Parasitology: Drugs and Drug …, 2025).
Read-outs that look alike come from different tables or passages of the source. Where a SMILES comes first, the peptide text is derived from it. Bridges are numbered along the chain shown (N, C = ends). The star is where a group is joined. X2 = CCCCCCCCCCCC(O)CC(=O)*

Legend:
[1] = system: P. falciparum 3D7 parasites; experiment: P. falciparum growth inhibition assay, 1-cycle (72 h treatment), SYBR DNA staining (library screen at 2 μg/mL and dose-response); format: cell-based, Plasmodium falciparum; conditions: for activity at 2 µg/mL: Plasmodium falciparum, 3D7
[2] = system: P. falciparum 3D7 parasites; experiment: P. falciparum growth inhibition assay, 2-cycle (120 h treatment), delayed-death screen and dose-response; format: cell-based, Plasmodium falciparum; conditions: for activity at 2 µg/mL: Plasmodium falciparum, 3D7
[3] = system: T. gondii RH strain (RH-Tub-eYFP) tachyzoites; experiment: microbe, parasite or virus in culture; format: cell-based, Toxoplasma gondii; conditions: 72 h; for percent parasite growth at 2 µg/mL: Toxoplasma gondii
[4] = P. falciparum, 72 h, screen at 2 μg/mL, replicate 1, read-out: Pf_72h_%Growth_Rep1
[5] = P. falciparum, 72 h, screen at 2 μg/mL, replicate 2, read-out: Pf_72h_%Growth_Rep2
[6] = P. falciparum, 120 h, screen at 2 μg/mL, replicate 1, read-out: Pf_120h_%Growth_Rep1
[7] = P. falciparum, 120 h, screen at 2 μg/mL, replicate 2, read-out: Pf_120h_%Growth_Rep2
[8] = T. gondii, screen at 2 μg/mL, replicate 1, read-out: Tg_72h_%Growth_Rep1
[9] = T. gondii, screen at 2 μg/mL, replicate 2, read-out: Tg_72h_%Growth_Rep2

Work on `CCCCCCCCCCCC(O)CC(=O)NC(CC(C)C)C(=O)NC(CCC(=O)O)C(=O)NC1C(=O)NC(C(C)C)C(=O)NC(CC(C)C)C(=O)NC(CO)C(=O)NC(CC(C)C)C(=O)NC(CC(C)C)C(=O)NC(CO)C(=O)NC(C(C)C)C(=O)OC1C` (stereo not drawn) [BIA-O1431] (X2-LETVLSLLSV; ester 3-C; configuration not given here) yielded a Pf_72h_%Growth_Rep1 ([1]; P. falciparum 3D7, 72 h, parasite screen at 2 μg/mL, % growth, replicate 1) of 80.05%, a Pf_72h_%Growth_Rep2 ([1]; P. falciparum 3D7, 72 h, parasite screen at 2 μg/mL, % growth, replicate 2) of 103.50% and a Pf_120h_%Growth_Rep1 ([2]; P. falciparum 3D7, 120 h, parasite screen at 2 μg/mL, % growth, replicate 1) of 94.38%. The Pf_120h_%Growth_Rep2 ([2]; P. falciparum 3D7, 120 h, parasite screen at 2 μg/mL, % growth, replicate 2) was 109.58%, the Tg_72h_%Growth_Rep1 ([3]; T. gondii, parasite screen at 2 μg/mL, % growth, replicate 1) was 138.54% and the Tg_72h_%Growth_Rep2 ([3]; T. gondii, parasite screen at 2 μg/mL, % growth, replicate 2) was 91.95%.

Work on `CC(=O)c1c(O)c(C)c(O)c2c1OC1=CC(=O)C(C(C)=O)C(=O)C12C` (stereo not drawn) [Usnic acid] yielded an activity at 2 µg/mL [1, 4] of 82.8%, an activity at 2 µg/mL [1, 5] of 126% and an activity at 2 µg/mL [2, 6] of 101%. For the same compound, the activity at 2 µg/mL [2, 7] was 102%, the percent parasite growth at 2 µg/mL [3, 8] was 115% and the percent parasite growth at 2 µg/mL [3, 9] was 87.6%.

Compound `CO[C@@H]1[C@@H](O)[C@@H](O)[C@@H](Oc2ccc3c(O)c(NC(=O)c4ccc(O)c(CC=C(C)C)c4)c(=O)oc3c2C)OC1(C)C` [Descarbamylnovobiocin] has a Pf_72h_%Growth_Rep1 ([1]; library screen at 2 μg/mL, 72 h, % growth, replicate 1) of 85.51%, a Pf_72h_%Growth_Rep2 ([1]; library screen at 2 μg/mL, 72 h, % growth, replicate 2) of 80.09% and a Pf_120h_%Growth_Rep1 ([2]; library screen at 2 μg/mL, 120 h, % growth, replicate 1) of 85.93%. For the same compound, the Pf_120h_%Growth_Rep2 ([2]; library screen at 2 μg/mL, 120 h, % growth, replicate 2) was 82.51%, the Tg_72h_%Growth_Rep1 ([3]; library screen at 2 μg/mL, % growth, replicate 1) was 154.63% and the Tg_72h_%Growth_Rep2 ([3]; library screen at 2 μg/mL, % growth, replicate 2) was 96.44%.

In the case of `CC(=O)O[C@@H]1CC[C@@]2(C)[C@@H](CC[C@@H](C)[C@]23Cc2c(O)cc(CO)c(C=O)c2O3)C1(C)C` [Stachybotrysin B], the Pf_72h_%Growth_Rep1 ([1]; P. falciparum, 72 h, parasite screen 2 μg/mL, % growth, replicate 1) is reported as 81.92%, the Pf_72h_%Growth_Rep2 ([1]; P. falciparum, 72 h, parasite screen 2 μg/mL, % growth, replicate 2) is reported as 82.33% and the Pf_120h_%Growth_Rep1 ([2]; P. falciparum, 120 h, parasite screen 2 μg/mL, % growth, replicate 1) is reported as 161.09%. The Pf_120h_%Growth_Rep2 ([2]; P. falciparum, 120 h, parasite screen 2 μg/mL, % growth, replicate 2) was 88.10%, the Tg_72h_%Growth_Rep1 ([3]; T. gondii, parasite screen 2 μg/mL, % growth, replicate 1) was 84.36% and the Tg_72h_%Growth_Rep2 ([3]; T. gondii, parasite screen 2 μg/mL, % growth, replicate 2) was 101.19%.

Compound `C=CC(C)(C)[C@@]12C[C@H]3C(=O)N[C@H](CC(C)C)C(=O)N3[C@H]1N(C(C)=O)c1ccccc12` [Verrucofortine] has an activity at 2 µg/mL [1, 4] of 70%, an activity at 2 µg/mL [1, 5] of 83.7% and an activity at 2 µg/mL [2, 6] of 152%. The activity at 2 µg/mL [2, 7] was 81.9%, the percent parasite growth at 2 µg/mL [3, 8] was 90.9% and the percent parasite growth at 2 µg/mL [3, 9] was 99.7%.

In the case of `CC(C)[C@@H]1NC(=O)[C@H](Cc2ccc(O)cc2)NC1=O` [Cyclo(L-Tyr-L-Val)], the Pf_72h_%Growth_Rep1 ([1]; P. falciparum, 72 h, screen at 2 μg/mL, replicate 1) is reported as 84.64%, the Pf_72h_%Growth_Rep2 ([1]; P. falciparum, 72 h, screen at 2 μg/mL, replicate 2) is reported as 82.94% and the Pf_120h_%Growth_Rep1 ([2]; P. falciparum, 120 h, screen at 2 μg/mL, replicate 1) is reported as 98.73%. The Pf_120h_%Growth_Rep2 ([2]; P. falciparum, 120 h, screen at 2 μg/mL, replicate 2) was 89.51%, the Tg_72h_%Growth_Rep1 ([3]; T. gondii, screen at 2 μg/mL, replicate 1) was 164.57% and the Tg_72h_%Growth_Rep2 ([3]; T. gondii, screen at 2 μg/mL, replicate 2) was 103.47%.

`CCCC[C@@]1(OC(=O)CCC(=O)O)CC[C@]2(CC[C@H](C)[C@@H](C/C=C(C)/C=C/[C@H](O)[C@@H](C)/C=C/C(=O)O)O2)O[C@H]1/C=C/C(C)=C/C(=O)O` [Reveromycin A] showed an activity at 2 µg/mL ([1]; P. falciparum, 72 h, parasite screen 2 μg/mL, % growth, replicate 1, read-out: Pf_72h_%Growth_Rep1) of 75.9%, an activity at 2 µg/mL ([1]; P. falciparum, 72 h, parasite screen 2 μg/mL, % growth, replicate 2, read-out: Pf_72h_%Growth_Rep2) of 65.4% and an activity at 2 µg/mL ([2]; P. falciparum, 120 h, parasite screen 2 μg/mL, % growth, replicate 1, read-out: Pf_120h_%Growth_Rep1) of 69.8%. The activity at 2 µg/mL ([2]; P. falciparum, 120 h, parasite screen 2 μg/mL, % growth, replicate 2, read-out: Pf_120h_%Growth_Rep2) was 88.5%, the percent parasite growth at 2 µg/mL ([3]; T. gondii, parasite screen 2 μg/mL, % growth, replicate 1, read-out: Tg_72h_%Growth_Rep1) was 119% and the percent parasite growth at 2 µg/mL ([3]; T. gondii, parasite screen 2 μg/mL, % growth, replicate 2, read-out: Tg_72h_%Growth_Rep2) was 88.8%.
